Test results reported in paper PMC8781304, “Arene-Ruthenium(II) Complexes with Carbothiamidopyrazoles as a Potential Alternative for Antibiotic Resistance in Human” (Molecules, 2022).
Converted amounts (≈) assume the structure as drawn. Like-named read-outs stand apart in the source and are kept apart here.

How the values were obtained:
S. aureus ATCC 29213 [1] = assay: Time-kill test; format: cell-based, Staphylococcus aureus; conditions: 1 × MIC
Method: (§1) The time-kill experiments were performed as described previously. Briefly, inocula were prepared in TSB medium (TSB; […] BTL Sp. z o.o., Łódź, Poland). All samples were incubated at 35 °C and 80 rpm for varied time intervals (2, 4, 6, 12, 18, 24, 48h). The percentage of dead cells was calculated according to the growth control by determining the number of living cells (CFU/mL) of each tube using the agar plate count method. Samples were immediately serially diluted ten-fold in 0.01 M phosphate buffered saline (PBS, Bimed Lublin S.A., Lublin, Poland) at pH 7.0 and 10 μL aliquots were spot-inoculated in duplicate onto MHA plates. Agar plates were incubated at 37 °C overnight before determining the viable count. Two independent experiments were carried out.

[2] = system: S. epidermidis ATCC 12228; assay: Time-kill test; format: cell-based, Staphylococcus epidermidis; conditions: 1 × MIC
Method: as §1

[3] = system: Staphylococcus aureus ATCC 29213; assay: Fluorescence microscopy, Hoechst 33258 / propidium iodide viability; format: cell-based; conditions: S. aureus ATCC 29213; MIC concentration, 24 h
Method: (§2) Staphylococcus aureus ATCC 29213 and Staphylococcus epidermidis ATCC 12228 strains were treated with tested compounds 2a–2d and 3a–3d at a concentration 1 × MIC for 24h, while untreated cells were used as a growth control. After incubation, the cells were harvested and a suspension of 1 × 10^5 cells/mL in PBS was prepared. Following this, 1 µl of the fluorescent dyes Hoechst 33258 and propidium iodide (15 µg/mL each) (Sigma, St. Louis, MO, USA) were added. The obtained mixture was incubated in the dark at room temperature for 15–20 min. After incubation, the cell suspensions, placed on glass slides, were analyzed under an Olympus IX 70 fluorescence microscope (Shinjuku, Tokyo, Japan), using a 360–370 nm UV filter. Photos were taken at 10 × 20 magnification.

[4] = system: Staphylococcus epidermidis ATCC 12228; assay: as above; format: cell-based; conditions: S. epidermidis ATCC 12228; MIC concentration, 24 h
Method: as §2

S. aureus ATCC 29213 [5] = assay: Synergy with oxacillin and vancomycin, partial checkerboard broth microdilution; format: cell-based, Staphylococcus aureus; conditions: for FIC (Oxa) / FIC (Van): MIC antibiotic in combination/MIC antibiotic alone; for MIC Oxa in Combination: oxacillin with the complex at ½ MIC (NH4PF6 250 µg/mL); for MIC Van in Combination: vancomycin with the complex at ½ MIC (NH4PF6 250 µg/mL); for MIC: Staphylococcus aureus
[6] = system: S. epidermidis ATCC 12228; assay: as above; format: cell-based, Staphylococcus epidermidis; conditions: for FIC (Oxa) / FIC (Van): MIC antibiotic in combination/MIC antibiotic alone; for MIC Oxa in Combination: oxacillin with the complex at ½ MIC (NH4PF6 250 µg/mL); for MIC Van in Combination: vancomycin with the complex at ½ MIC (NH4PF6 250 µg/mL); for MIC: Staphylococcus epidermidis
[7] = system: S. epidermidis ATCC 12228; assay: Cell lysis (bacteriolysis, OD600); format: cell-based, Staphylococcus epidermidis; conditions: 1 × MBC
[8] = system: Candida albicans ATCC 10231; assay: MIC and MBC/MFC by broth microdilution; format: cell-based; conditions: C. albicans ATCC 10231
Method: (§3) Reference strains of bacteria and fungi: Staphylococcus aureus ATCC 29213, Staphylococcus epidermidis ATCC 12228, Enterococcus faecalis ATCC 29212, Pseudomonas aeruginosa ATCC 25619, Proteus vulgaris ATCC 8427, and Candida albicans ATCC 10231 (Manassas, VA, USA) were used to screen the antimicrobial activity of the arene-ruthenium(II) complexes 3a-3d, NH4PF6 and selected antibiotics. The microorganisms were grown for 24 h (bacteria) or 48 h (fungi) in 35-37 °C in tryptic-soy agar (TSA; BTL Sp. z o.o., Łódź, Poland) or Sabouraud's dextrose agar (SDA; BTL Sp. z o.o., Łódź, Poland) according to nutritional requirements. Microbial suspensions at a density of about 5 × 10^5 CFU/mL were prepared in Mueller-Hinton broth (MHB; BTL Sp. z o.o., Łódź, Poland) or RPMI-1640 medium (Sigma, St. Louis, MO, USA) for bacteria and fungi, respectively. […] Louis, MO, USA). Stock solutions of the lyophilized compounds were freshly prepared in 100% DMSO (POCh, Gliwice, Poland) for the complexes, or in water for injection (Sigma, St. Louis, MO, USA) in the case of antibiotics. […] MIC and MBC/MFC were defined as the lowest concentrations of the compounds inhibiting bacterial/fungal growth or able to kill added microbial inoculum, respectively, and were evaluated as described by […] et al.. Experiments were carried out in duplicate.

[9] = system: Enterococcus faecalis ATCC 29212; assay: MIC and MBC/MFC by broth microdilution; format: cell-based; conditions: E. faecalis ATCC 29212
Method: as §3

[10] = system: Pseudomonas aeruginosa ATCC 25619; assay: MIC and MBC/MFC by broth microdilution; format: cell-based; conditions: P. aeruginosa ATCC 25619
Method: as §3

[11] = system: Proteus vulgaris ATCC 8427; assay: MIC and MBC/MFC by broth microdilution; format: cell-based; conditions: P. vulgaris ATCC 8427
Method: as §3

[12] = system: Staphylococcus aureus ATCC 29213; assay: MIC and MBC/MFC by broth microdilution; format: cell-based; conditions: S. aureus ATCC 29213
Method: as §3

[13] = system: Staphylococcus epidermidis ATCC 12228; assay: MIC and MBC/MFC by broth microdilution; format: cell-based; conditions: S. epidermidis ATCC 12228
Method: as §3

[14] = system: human foreskin fibroblast HFF-1 (ATCC-SCRC-1041); assay: Cytotoxicity, MTT reduction assay; format: cell-based
Method: The cytotoxicity of arene-ruthenium(II) complexes 3a–3d was determined using the MTT (3-(4,5-dimethylthiazol-2-yl)-2,5-diphenyltetrazolium bromide; Sigma, St. Louis, MO, USA) reduction assay and a human foreskin fibroblast HFF-1 culture (ATCC-SCRC-1041) (LGC Standards Sp. z o.o., Poland) at a final concentration range of 3.9–500 µM. The HFF-1 cells were cultured in Dulbecco’s Modified Eagle’s Medium (DMEM; Sigma, St. Louis, MO, USA) with 15% fetal bovine serum (FBS; BioWest, Nuaillé, France) and penicillin/streptomycin (100 × stock solution; BioWest, Nuaillé, France), 1 × 10^6 cell/mL (100 µL/well) in 96-well tissue culture plates (Nunc, Roskilde, Denmark) for 24 h at 37 °C/5% CO2. The cells were then exposed to arene-ruthenium(II) complexes for 24 h at 37 °C. The control (untreated) cells were exposed to culture medium alone or culture medium containing 2% DMSO to exclude the effect of the solvent used to prepare the stock solutions of the tested complexes. Next, fresh culture medium (100 µL/well) and MTT (1.5 mg/mL, 50 µL/well) were added, and cells were incubated for two hours under the above conditions. MTT was […] blue formazan crystals produced by the metabolically active cells. Finally, the MTT solution was removed and replaced with 100 µL/well of 20% sodium dodecyl sulfate (SDS; Sigma, St. Louis, MO, USA) for 24 h (room temperature) to dissolve the blue formazan. Based on the absorbance (λ = 550 nm) of tested and control cells (100% viability), the percentage of cell viability after exposure was calculated. For each sample, the experiment was performed twice.

Row | Compound | FIC (Oxa) (S. aureus ATCC 29213 [5]; S. aureus ATCC 29213) | FIC (Van) (S. aureus ATCC 29213 [5]; S. aureus ATCC 29213) | MIC Oxa in Combination (S. aureus ATCC 29213 [5]; S. aureus ATCC 29213) [µg/mL] | MIC Van in Combination (S. aureus ATCC 29213 [5]; S. aureus ATCC 29213) [µg/mL] | FIC (Oxa) ([6]; S. epidermidis ATCC 12228) | FIC (Van) ([6]; S. epidermidis ATCC 12228) | MIC Oxa in Combination ([6]; S. epidermidis ATCC 12228) [µg/mL] | MIC Van in Combination ([6]; S. epidermidis ATCC 12228) [µg/mL] | MBC/MFC [8] [µg/mL] | MIC [8] [µg/mL] | MBC/MFC [9] [µg/mL] | MIC [9] [µg/mL] | MBC/MFC [10] [µg/mL] | MBC/MFC [11] [µg/mL] | MBC/MFC [12] [µg/mL] | MBC/MFC [13] [µg/mL] | other results
1 | Cc1cc(C)n(C(N)=S)n1.Cc1ccc(C(C)C)cc1.[Cl-].[Cl][Ru+] [Compound 2a] | 1 | 1 | 0.250 | 0.50 | 0.06 | 0.03 | 0.015 | 0.015 |  |  |  |  |  |  |  |  | Time-kill: bacteriostatic or bactericidal (S. aureus ATCC 29213 [1]): bacteriostatic; Time-kill: bacteriostatic or bactericidal [2]: bacteriostatic; Change in bacterial viability (Hoechst 33258 / PI fluorescence) [3]: Less changes in cell survival; Change in bacterial viability (Hoechst 33258 / PI fluorescence) [4]: Less changes in cell survival; Cell lysis, change of OD600 [7]: not found to change OD600 values
2 | Cc1ccc(C(C)C)cc1.Cc1ccc(C(C)C)cc1.[Cl][Ru][Cl].[Cl][Ru][Cl] [Dimer, dichloro(p-cymene)ruthenium(II) dimer] | 1 | 1 | 0.250 | 0.50 | 1 | 2 | 0.25 | 1 |  |  |  |  |  |  |  |  | Correlation with Oxa and Van (synergy), in words (S. aureus ATCC 29213 [5]; S. aureus ATCC 29213): did not show any synergistic effect; Correlation with Oxa and Van (synergy), in words ([6]; S. epidermidis ATCC 12228): did not show any synergistic effect
3 | OC(Cn1cncn1)(Cn1cncn1)c1ccc(F)cc1F [Flu, fluconazole, reference compound] |  |  |  |  |  |  |  |  | >16 | >16 |  |  |  |  |  |  | MIC ([8]; Candida albicans, ATCC10231, read-out: MIC): > 16 µg/mL
4 | CNC(C)C1CCC(N)C(OC2C(N)CC(N)C(OC3OCC(C)(O)C(NC)C3O)C2O)O1 (stereo not drawn) [Gen, gentamicin, reference compound] |  |  |  |  |  |  |  |  |  |  | <2 | <2 | 16 (≈ 33.5 µM) | 1 (≈ 2.09 µM) |  |  | MIC ([9]; Enterococcus faecalis, ATCC29212, read-out: MIC): < 2 µg/mL; MIC ([10]; Pseudomonas aeruginosa, ATCC25619, read-out: MIC): 8 µg/mL (≈ 16.8 µM); MIC ([11]; Proteus vulgaris, ATCC8427, read-out: MIC): 1 µg/mL (≈ 2.09 µM)
5 | F[P-](F)(F)(F)(F)F.[NH4+] [NH4PF6, Ammonium hexafluorophosphate] | 1 | 1 | 0.250 | 0.50 | 1 | 2 | 0.25 | 1 | >1000 | >1000 | >1000 | >1000 | >1000 | >1000 | >1000 | >1000 | Correlation with Oxa and Van (synergy), in words (S. aureus ATCC 29213 [5]; S. aureus ATCC 29213): did not show any synergistic effect; Correlation with Oxa and Van (synergy), in words ([6]; S. epidermidis ATCC 12228): did not show any synergistic effect; MIC [12]: >1000 µg/mL; MIC [13]: >1000 µg/mL; MIC [10]: >1000 µg/mL; MIC [11]: >1000 µg/mL
6 | Cc1onc(-c2ccccc2)c1C(=O)N[C@@H]1C(=O)N2[C@@H]1SC(C)(C)[C@@H]2C(=O)O [Oxa, oxacillin, reference compound] |  |  |  |  |  |  |  |  |  |  |  |  |  |  | 0.5 (≈ 1.25 µM) | 0.5 (≈ 1.25 µM) | MIC (S. aureus ATCC 29213 [5]; ATCC29213, S. aureus ATCC 29213, oxacillin without complex, read-out: MIC Oxa Alone): 0.25 µg/mL; MIC ([6]; ATCC12228, S. epidermidis ATCC 12228, oxacillin without complex, read-out: MIC Oxa Alone): 0.25 µg/mL; MIC ([12]; Staphylococcus aureus, ATCC29213, read-out: MIC): 0.25 µg/mL (≈ 0.623 µM); MIC ([13]; Staphylococcus epidermidis, ATCC12228, read-out: MIC): 0.25 µg/mL (≈ 0.623 µM)
7 | CN[C@H](CC(C)C)C(=O)N[C@H]1C(=O)N[C@@H](CC(N)=O)C(=O)N[C@H]2C(=O)N[C@H]3C(=O)N[C@H](C(=O)N[C@H](C(=O)O)c4cc(O)cc(O)c4-c4cc3ccc4O)[C@H](O)c3ccc(c(Cl)c3)Oc3cc2cc(c3O[C@@H]2O[C@H](CO)[C@@H](O)[C@H](O)[C@H]2O[C@H]2C[C@](C)(N)[C@H](O)[C@H](C)O2)Oc2ccc(cc2Cl)[C@H]1O [Van, vancomycin, reference compound] |  |  |  |  |  |  |  |  |  |  |  |  |  |  |  |  | MIC (S. aureus ATCC 29213 [5]; ATCC29213, read-out: MIC Van Alone): 0.5 µg/mL; MIC ([6]; ATCC12228, read-out: MIC Van Alone): 0.5 µg/mL
8 | [(η ^6 -p-cymene)Ru(1-[amino(thioxo)methyl]-5-hydroxy-3-methyl-1H-pyrazole)[PF6] [Compound 3d] | 1 | 2 | 0.250 | 1 | 0.25 | 0.06 | 0.06 | 0.03 | >1000 | >1000 | 500 | 500 | 1000 | >1000 | 500 | 250 | IC50 ([14]; HFF-1, MTT, 24 h, tested 3.9–500 μM): 892 µM; HFF-1 viability (lowest) ([14]; range 3.9–500 μM): ≥ 75%; Change in bacterial viability (Hoechst 33258 / PI fluorescence) [3]: no significant changes in the viability; Change in bacterial viability (Hoechst 33258 / PI fluorescence) [4]: no significant changes in the viability; MIC [12]: 125 µg/mL; MIC [13]: 125 µg/mL; MIC [10]: 1000 µg/mL; MIC [11]: >1000 µg/mL
